According to patent US8409600B2, “Methods for prevention and/or treatment of capsular contracture” (J&E Solutions, LLC, priority 2009, dated 2013):

Tested on: breast capsular contracture
Assay: Clinical cases: topical treatment of breast capsular contracture (Baker grade)
Format: in vivo, human
Details: Patient #1, Aleve and massage after first revision (bilateral Grade 3 capsular contracture)
Source text: The methods of the present invention for prevention of capsular contracture comprise topical application of the composition using the following steps: • Wash and dry the affected area (that is, the skin surrounding the implant or the skin over the capsular contracture) prior to use. • Apply the composition daily (use sparingly) with vigorous massage to affected area. If necessary, exert compression or pressure when massaging to break up existing capsule. Enhanced absorption is obtained with application of the composition following a hot shower. Occlusive dressing (hydrogel), or tight clothing (sports bras), will also enhance the result. Continued daily use will yield optimal results. […] Optimal results are best maintained with daily continued application. One particularly useful embodiment of the invention involves the use of the topical compositions for the treatment/prevention of capsular contracture in breast surgery (e.g., breast implants). There are four grades of breast capsular contracture—Baker grades I through IV. The Baker grading is as follows: • Grade I—the breast is normally soft and looks natural • Grade II—the breast is a little firm but looks normal • Grade III—the breast is firm and looks abnormal • Grade IV—the breast is hard, painful, and looks abnormal. • of developed or is at risk of developing capsular contracture a topical composition. Clinical Cases Patient #1

**Q.** How did the “response of capsular contracture to treatment” value turn out when `COc1ccc2cc([C@H](C)C(=O)O)ccc2c1` [Aleve, naproxen sodium] was run?
**A.** without result
